Measured values reported in US20260217701A1, “SELECTIVE BET INHIBITORS AND USES THEREOF” (Tay Therapeutics Limited, priority 2022, published 2026).
Where “and” joins values, the source holds several entries; their conditions need not be identical. Equal values may be shown once.

Assay: Rat PK study #1 (Compound A PO, methylcellulose vs propylene glycol formulation)
Type: in vivo, Lewis rats
Description: For the first rat pharmacokinetic study, the pharmacokinetics of Compound A were assessed in male Lewis rats. Compound A was prepared in two different formulations (1% methylcellulose and 20% propylene glycol/20% Vitamin E/60% water) according to Table 3A (see Tables 2A and 2D for formulations). The formulations were made fresh prior to use. Animals were divided into two groups based on the compound formulation (n=3/group). The Compound A solutions were administered to animals orally (PO) and animals were then monitored over a 24 h period.
Blood samples (~0.2 mL) were collected according to a schedule (0.083, 0.25, 0.5, 1, 2, 4, 8, and 24 h following the initial dosing) via the jugular vein by cannulation and EDTA-K2 was used as anticoagulant. Within 30 minutes of collection, the samples were centrifuged at approximately 4000 times g-force for 5 minutes at 4° C. to obtain blood plasma. The plasma samples were immediately divided into two aliquots (~75 μL each), transferred to a cryogenic vial, and stored in a freezer at −75±15° C. prior to analysis.
The concentration of Compound A in plasma samples was determined by liquid chromatography-mass spectrometry (LC-MS/MS) using a Shimadzu HPLC (DGU-20A5R; LC-30AD; SIL-30AC; Rack changer II; CTO-31A; and CBM-20A) and an AB API 5500 LC/MS/MS instrument. Samples were analyzed on an Agilent Poroshell 120 EC-C18 4 μm (50×2.1 mm) column. Solution A in the mobile phase was 95% water (0.1% formic acid) and solution B was 95% acetonitrile in water (0.1% formic acid), injection volume was 3 μL, and flow rate was 0.6 mL/min.
To prepare samples for analysis, serial concentrations were prepared by diluting the stock solution of analyte with a 50% acetonitrile in water solution. 5 μL working solutions (5, 10, 20, 50, 100, 500, 1000, 5000, and 10000 ng/ml) were added to 50 μL of the blank Lewis rat plasma to achieve calibration standards of ~0.5 to 1000 ng/ml (0.5, 1, 2, 5, 10, 50, 100, 500, and 1000 ng/ml) in a total volume of 55 μL. Five quality control samples at 1 ng/ml, 2 ng/ml, 5 ng/mL, 50 ng/mL, and 800 ng/mL for plasma were prepared independently of those used for the calibration curves. These QC samples were prepared on the day of analysis in the same way as calibration standards.
55 μL of standards, 55 μL of QC samples and 55 μL of unknown samples (50 μL of unknown rat plasma with 5 μL of blank solution) were added to 200 μL of acetonitrile containing internal standard (IS; verapamil) mixture for precipitating protein respectively. The samples were then vortexed for 30 s. After centrifugation at 4° C., 3900 rpm for 15 min, the supernatant was diluted 3 times with water. 3 μL of diluted supernatant was injected into the LC/MS/MS system for quantitative analysis.

[1] = Lewis rats, PO 10 mg/kg, 1% methylcellulose formulation, individual animals, 10 mg/kg
[2] = Lewis rats, PO 10 mg/kg, 1% methylcellulose formulation, mean of 3 animals
[3] = Lewis rats, PO 10 mg/kg, propylene glycol/Vitamin E TPGS/water formulation, individual animals, 10 mg/kg
[4] = Lewis rats, PO 10 mg/kg, propylene glycol/Vitamin E TPGS/water formulation, mean of 3 animals

For `Cn1cc(-c2ccccc2)c(-c2cn(C)c(=O)c3[nH]c(-c4cnn(C(F)(F)F)c4)cc23)cc1=O` [Compound A, 6-methyl-4-(1-methyl-2-oxo-5-phenyl-1,2-dihydropyridin-4-yl)-2-(1-(trifluoromethyl)-1H-pyrazol-4-yl)-1,6-dihydro-7H-pyrrolo[2,3-c]pyridin-7-one], the “Plasma Concentration” value (Lewis rats, PO 10 mg/kg, 1% methylcellulose formulation, 0.083 h, individual animals) was 0 µg/mL, the “Plasma Concentration” value (Lewis rats, PO 10 mg/kg, 1% methylcellulose formulation, 0.083 h, mean of 3 animals) was “BLOQ” and the “Plasma Concentration” value (Lewis rats, PO 10 mg/kg, 1% methylcellulose formulation, 0.25 h, individual animals, 10 mg/kg) was 0.00137 µg/mL and 0.000868 µg/mL and 0.000603 µg/mL. For the same compound, the “Plasma Concentration” value (Lewis rats, PO 10 mg/kg, 1% methylcellulose formulation, 0.5 h, individual animals, 10 mg/kg) was 0.00907 µg/mL and 0.00415 µg/mL and 0.00289 µg/mL, the “Plasma Concentration” value (Lewis rats, PO 10 mg/kg, 1% methylcellulose formulation, 1 h, individual animals, 10 mg/kg) was 0.0107 µg/mL and 0.0122 µg/mL and the “Plasma Concentration” value (Lewis rats, PO 10 mg/kg, 1% methylcellulose formulation, 2 h, individual animals, 10 mg/kg) was 0.0216 µg/mL and 0.0227 µg/mL. For the same compound, the “Plasma Concentration” value (Lewis rats, PO 10 mg/kg, 1% methylcellulose formulation, 4 h, individual animals, 10 mg/kg) was 0.0492 µg/mL and 0.0431 µg/mL, the “Plasma Concentration” value (Lewis rats, PO 10 mg/kg, 1% methylcellulose formulation, 8 h, individual animals, 10 mg/kg) was 0.0293 µg/mL and 0.0673 µg/mL and 0.0506 µg/mL and the “Plasma Concentration” value (Lewis rats, PO 10 mg/kg, 1% methylcellulose formulation, 24 h, individual animals, 10 mg/kg) was 0.000996 µg/mL and 0.00152 µg/mL and 0.0058 µg/mL. For the same compound, the AUClast [1] was 0.875 µg·h/mL and 0.726 µg·h/mL, the AUClast/D [1] was 48.0 mg·h/mL and 87.5 mg·h/mL and 72.6 mg·h/mL and the Cmax [1] was 0.0673 µg/mL and 0.0506 µg/mL. For the same compound, the F [1] was 2.51% and 4.57% and 3.79%, the AUClast/D [2] was 69.4 mg·h/mL and the F [2] was 3.62%. For the same compound, the “Plasma Concentration” value (Lewis rats, PO 10 mg/kg, propylene glycol/Vitamin E TPGS/water formulation, 0.083 h, individual animals, 10 mg/kg) was 0.00372 µg/mL and 0.00436 µg/mL, the “Plasma Concentration” value (Lewis rats, PO 10 mg/kg, propylene glycol/Vitamin E TPGS/water formulation, 0.25 h, individual animals, 10 mg/kg) was 0.0398 µg/mL and 0.0472 µg/mL and the “Plasma Concentration” value (Lewis rats, PO 10 mg/kg, propylene glycol/Vitamin E TPGS/water formulation, 0.5 h, individual animals, 10 mg/kg) was 0.134 µg/mL. For the same compound, the “Plasma Concentration” value (Lewis rats, PO 10 mg/kg, propylene glycol/Vitamin E TPGS/water formulation, 1 h, individual animals, 10 mg/kg) was 0.264 µg/mL and 0.263 µg/mL, the “Plasma Concentration” value (Lewis rats, PO 10 mg/kg, propylene glycol/Vitamin E TPGS/water formulation, 2 h, individual animals, 10 mg/kg) was 0.375 µg/mL and 0.424 µg/mL and the “Plasma Concentration” value (Lewis rats, PO 10 mg/kg, propylene glycol/Vitamin E TPGS/water formulation, 4 h, individual animals, 10 mg/kg) was 0.316 µg/mL and 0.437 µg/mL. The “Plasma Concentration” value (Lewis rats, PO 10 mg/kg, propylene glycol/Vitamin E TPGS/water formulation, 8 h, individual animals, 10 mg/kg) was 0.156 µg/mL and 0.145 µg/mL, the “Plasma Concentration” value (Lewis rats, PO 10 mg/kg, propylene glycol/Vitamin E TPGS/water formulation, 24 h, individual animals, 10 mg/kg) was 0.0126 µg/mL and 0.0125 µg/mL and the AUC_%Extrap_obs (Lewis rats, PO 10 mg/kg, propylene glycol/Vitamin E TPGS/water formulation, individual animals) was 2.25%. For the same compound, the AUClast [3] was 3.428 µg·h/mL and 3.755 µg·h/mL, the Cmax [3] was 0.375 µg/mL and 0.437 µg/mL and the F [3] was 25.8% and 17.1% and 19.6%. For the same compound, the AUClast/D [4] was 404, the F [4] was 20.8% and the Clinical observations (both formulations, PO, 24 h) was “no recorded clinical observations”. The “plasma concentration, propylene glycol-based vs methylcellulose-based formulation” value (male Lewis rats, PO, same dose) was “approximately 10 fold”, the concentration at 0.083 h (male, Lewis, rat, plasma, po, 10 mg/kg, Lewis rats, PO 10 mg/kg, 1% methylcellulose formulation, 0.083 h, individual animals) was 0 µg/mL and the concentration at 0.25 h (male, Lewis, rat, plasma, po, 10 mg/kg, Lewis rats, PO 10 mg/kg, 1% methylcellulose formulation, 0.25 h, mean of 3 animals) was 0.00095 µg/mL. For the same compound, the concentration at 0.5 h (male, Lewis, rat, plasma, po, 10 mg/kg, Lewis rats, PO 10 mg/kg, 1% methylcellulose formulation, 0.5 h, mean of 3 animals) was 0.00537 µg/mL, the concentration at 1 h (male, Lewis, rat, plasma, po, 10 mg/kg, Lewis rats, PO 10 mg/kg, 1% methylcellulose formulation, 1 h, individual animals) was 0.0171 µg/mL and the concentration at 1 h (male, Lewis, rat, plasma, po, 10 mg/kg, Lewis rats, PO 10 mg/kg, 1% methylcellulose formulation, 1 h, mean of 3 animals) was 0.0133 µg/mL.
